Experimental data published in patent US12527773B2, “Flavi-block: a pan-flavivirus inhibitor” (Baden-Württemberg Stiftung GmbH, priority 2020, dated 2026).
Where two headings read alike, the source gives them in different places.

Experiments:
HeLa-LC5-RIC cells = assay: Cytotoxicity in HeLa-LC5-RIC cells (Cell Titer Glo); type: cell-based
Method: Cell viability was measured via the presence of ATP using the Promega Cell Titer Glo kit according to the manufacturer's instructions. Luminescence was detected using the Cytation3 by Biotek. […] (B) The same set of data as shown in FIG. 4A was plotted in a line graph. […] (D) As for FIG. 4A, Huh7.5 cells (1.0×10^4 cells/well) were seeded and incubated with C10 at the indicated concentrations for the indicated time points before measurement of viability using the Promega Cell Titer Glo kit.
It is shown that compound C10 is not toxic even a high concentrations of up to 40 μM.

HCV = assay: IC50 in established virological assays (Table 1), HCV; type: cell-based, Hepatitis C virus
Method: (§1) In summary, a set of C10 derivatives (FIG. 12) was designed, synthesized and tested against HCV (which is considered as an established system to monitor drug effects against Flaviviridae) as well as DENV for comprehensive structure-activity relationship (SAR) analysis and target validation. IC50 and CC50 values for compound C10 were determined in established virological assays (Table 1). […] Further, said experiments underline the specificity of compound C10 for flaviviruses.

DEN1/2 = assay: IC50 in established virological assays (Table 1), DEN1/2; type: cell-based; details: Dengue virus
From the text: In summary, a set of C10 derivatives (FIG. 12) was designed, synthesized and tested against HCV (which is considered as an established system to monitor drug effects against Flaviviridae) as well as DENV for comprehensive structure-activity relationship (SAR) analysis and target validation.

FluAV = assay: IC50 in established virological assays (Table 1), FluAV; type: cell-based; details: Influenza A virus
MeV = assay: IC50 in established virological assays (Table 1), MeV; type: cell-based, Measles morbillivirus
Method: as §1

HIV = assay: IC50 in established virological assays (Table 1), HIV; type: cell-based
Method: as §1

HBV = assay: IC50 in established virological assays (Table 1), HBV; type: cell-based, Hepatits B Virus
Method: as §1

KUNV (MRM61C strain) = assay: Plaque assay of released virus, KUNV-infected Vero cells; type: cell-based, Kunjin virus; details: West Nile virus
Method: (§2) Vero cells were infected with KUNV at an MOI of 1 for 2 h (post infection), after which virus was removed, and fresh maintenance medium containing 2% FCS together with the indicated concentration of C10 added. For co-treat condition, Vero cells were infected with KUNV at an MOI of 1 in the presence of C10 for 2 h, followed by removal of the virus/C10 inoculums, and addition of fresh 2% fetal calf serum maintenance medium.
Vero and BHK-21 cells were maintained in DMEM media supplemented with 10% heat-inactivated FBS at 37° C. in a humidified incubator supplemented with 5% CO2; A549 cells were maintained in F-12K medium supplemented with 10% heat-inactivated Fetal Bovine Serum (FBS), 2 mM L-glutamine, 50 U/I penicillin, 0.05 mg/l streptomycin. DENV-1-4 strains, cell culture conditions and Gen-Bank accession numbers, as well as details of RSV strains and culture are known in the art. […] Viral titer was subsequently determined by plaque assay (see below).
Vero cells were seeded into 24-well plates at a density of 2×10^5 cells/well and grown overnight in culture medium at 37° C. with 5% CO2 prior to infection with RSV, KUNV, ZIKV as indicated. BHK-21 cells were used for DENV1-4. […] The stain was removed by rinsing the cells with tap water, and the viral plaques were counted visually. […]

ZIKV = assay: RT-qPCR analysis of virus genomes, ZIKV; type: cell-based; details: Zika virus
Method: as §2, with “ZIKV” for “KUNV”, “medium. […] Results represent the mean ±SD for duplicate wells from a single assay (cf. Table 2 for pooled data).” for “medium.”
(§3) Viral RNA was extracted using Isolate II RNA extraction kit (Bioline), and the absolute number of RNA copies determined by Taqman One Step RT-qPCR (Applied Biosystems) by extrapolation from a standard curve generated from in vitro—transcribed virus RNA.
(§4) It was decided to test the ability of C10 to inhibit the flaviviruses DENV1-4, KUNV and ZIKV, in addition to the paramyxovirus RSV, as a control.

RSV = assay: RT-qPCR analysis of virus genomes, RSV; type: cell-based; details: human respiratory syncytial virus, c.t., read-out: EC50 from RT-qPCR analysis
From the text: as §3, §4

[1] = test system: VP1 polyomavirus, LP1 HPV16, p24 HIV, BSA, GFP; assay: Specificity in the cross-linking assay: other capsid and non-related proteins; type: biochemical
Method: DSS was included as a positive control.
To study the specificity of C10, capsid proteins of other viruses (VP1 polyomavirus, LP1 HPV16, and p24 HIV) as well as non-related proteins (BSA, GFP), were incubated in the so-called cross-linking assay, with DSS or C10.

[2] = Solubilization in dosing vehicle recipes; type: physicochemical
Method: The compound was assessed for solubilization in 5 different vehicle recipes: • 1. Physiological saline (0.9% NaCl solution in water) • 2. Kolliphor HS—physiological saline (20%:80%) • 3. DMSO-PEG400—physiological saline (20%:50%:30%) • 4. PEG400—5% dextrose in water (75%:25%) • 5. DMSO-Cremophor EL—5% Mannitol (10%:10%:80%)
To prepare the formulation using the DMSO-PEG400 —physiological saline (20%:50%:30%) recipe, the compound was first supplemented with the calculated volume of DMSO, vortexed for 1 minute and sonicated for 2 minutes at 40° C. Next, PEG400 and physiological saline were added. The final mixture was vortexed and sonicated for 2 minutes at 40° C. The working formulations batch was prepared for 1 h prior to the in vivo study.

In the case of CCN1/C(=C\C=C\c2sc3cc(NC(C)=O)ccc3[n+]2CC)Sc2cc(NC(C)=O)ccc21.[I-] [C10, 6-acetamido-2-((1E,3E)-3-(6-acetamido-3-ethylbenzo[d]thiazol-2(3H)-ylidene)prop-1-en-1-yl)-3-ethylbenzo[d]thiazol-3-ium iodide], the cytotoxicity (HeLa-LC5-RIC cells) is reported as “not toxic”, the IC50 (HCV) is reported as 180 nM and the IC50 (HCV; Hepatitis C virus) is reported as about 200 nM. The IC50 (DEN1/2) was 110 to 180 nM, the IC50 (FluAV) was about 5 µM and the “activity against Measles morbillivirus (MeV)” value (MeV) was “inactive or has only minor activity”. For the same compound, the IC50 (MeV; Measles morbillivirus, MeV) was over 10 µM, the “activity against HIV” value (HIV) was “does not act on HIV” and the IC50 (HIV; Human immunodeficiency virus 1, HIV) was over 100 µM. For the same compound, the “activity against Hepatits B Virus (HBV)” value (HBV) was “inactive or has only minor activity”, the IC50 (HBV; Hepatitis B virus, HBV) was over 10 µM and the EC50 (KUNV (MRM61C strain); read-out: EC50 from plaque assays, KUNV, c.t.) was 50 nM. The EC50 (KUNV (MRM61C strain); read-out: EC50 from plaque assays, KUNV, p.i.) was 420 nM, the EC50 (ZIKV; read-out: EC50 from RT-qPCR analysis, ZIKV, c.t.) was 440 nM and the EC50 (ZIKV; read-out: EC50 from RT-qPCR analysis, ZIKV, p.i.) was 1130 ± 1100 nM. The EC50 (RSV) was 830 ± 970 nM, the “crosslinking effect on other capsid and non-related proteins” value [1] was “either no effect on these proteins or it starts at concentrations around 200 times higher than the IC50” and the solubility ([2]; 5 vehicle recipes) was “very low solubility”. For the same compound, the “concentration of full dissolution” value ([2]; only in DMSO-PEG400-physiological saline (20%:50%:30%)) was 1 mg/mL.
